The text below walks through data of US20260070887A1 (Shenzhen Zhongge Biological Technology Co., Ltd., priority 2022, published 2026).

The target in one assay is KIF18A (Homo sapiens (Human), UniProt Q8NI77). Description: KIF18A ATPase activity under tubulin stimulation (ADP-Glo assay). Type of assay: biochemical. Conditions: KIF18A 30 nM, ATP 150 μM, pig microtubules. Background: ADP-Glo turns the ADP formed in a reaction into a luminescent signal.
A further assay concerns OVCAR-3 cells. Description: OVCAR-3 cell proliferation (Cell Titer-Glo, 10 days). The format is cell-based, human. As for the experimental part: The inhibitory effect on the KIF18A target by the compounds of the present disclosure was evaluated by testing the inhibitory effect on proliferation of OVCAR-3 cells by the compounds of the present disclosure.
The following method was used to determine the effect of the compounds of the present disclosure on the proliferation of human ovarian cancer cells Ovcar-3 (HTB-161, ATCC). Cells were cultured in RPMI-1640 complete medium containing 20% fetal bovine serum, 0.01 mg/mL bovine insulin, 100 U penicillin, and 100 μg/mL streptomycin. The Promega kit Cell Titer-Glo (Cat. No. G7572) was used in this method for test.
For specific steps, reference was made to the kit instructions, and the procedure was outlined below: Test compounds were dissolved in DMSO to prepare a 10 mM stock solution, which was diluted at the predetermined test concentrations, and the test compounds at different concentrations were added to a 384-well cell test plate using ECHO. In the plate pre-added with the test compounds, 400 OVCAR-3 cells in the logarithmic growth phase were seeded per well, ensuring the final concentration of the test compounds in the reaction system ranged between 0.12 nM and 10 μM. The co-culture was maintained in a cell culture incubator for 10 days. Before testing, the cell culture plate was equilibrated for 10 minutes at room temperature, 25 μL of Cell Titer-Glo was added to each well, and the mixture was shaken and mixed well and let stand for 5 minutes. The luminescence values for samples in various wells were read using a microplate reader in Luminescence mode.
The percentage of inhibition of cell proliferation by the test compound at each concentration was calculated by comparing with the values of the control group (0.1% DMSO). The IC50 values of the compounds were obtained by concentration-inhibition rate nonlinear regression analysis of the test compounds using GraphPad Prism 9.
On the technique in general: Cellular ATP, detected with luciferase, serves as a proxy for viable cell number.

Where two headings read alike, the source gives them in different places.

Sequence of KIF18A (Q8NI77 whole entry): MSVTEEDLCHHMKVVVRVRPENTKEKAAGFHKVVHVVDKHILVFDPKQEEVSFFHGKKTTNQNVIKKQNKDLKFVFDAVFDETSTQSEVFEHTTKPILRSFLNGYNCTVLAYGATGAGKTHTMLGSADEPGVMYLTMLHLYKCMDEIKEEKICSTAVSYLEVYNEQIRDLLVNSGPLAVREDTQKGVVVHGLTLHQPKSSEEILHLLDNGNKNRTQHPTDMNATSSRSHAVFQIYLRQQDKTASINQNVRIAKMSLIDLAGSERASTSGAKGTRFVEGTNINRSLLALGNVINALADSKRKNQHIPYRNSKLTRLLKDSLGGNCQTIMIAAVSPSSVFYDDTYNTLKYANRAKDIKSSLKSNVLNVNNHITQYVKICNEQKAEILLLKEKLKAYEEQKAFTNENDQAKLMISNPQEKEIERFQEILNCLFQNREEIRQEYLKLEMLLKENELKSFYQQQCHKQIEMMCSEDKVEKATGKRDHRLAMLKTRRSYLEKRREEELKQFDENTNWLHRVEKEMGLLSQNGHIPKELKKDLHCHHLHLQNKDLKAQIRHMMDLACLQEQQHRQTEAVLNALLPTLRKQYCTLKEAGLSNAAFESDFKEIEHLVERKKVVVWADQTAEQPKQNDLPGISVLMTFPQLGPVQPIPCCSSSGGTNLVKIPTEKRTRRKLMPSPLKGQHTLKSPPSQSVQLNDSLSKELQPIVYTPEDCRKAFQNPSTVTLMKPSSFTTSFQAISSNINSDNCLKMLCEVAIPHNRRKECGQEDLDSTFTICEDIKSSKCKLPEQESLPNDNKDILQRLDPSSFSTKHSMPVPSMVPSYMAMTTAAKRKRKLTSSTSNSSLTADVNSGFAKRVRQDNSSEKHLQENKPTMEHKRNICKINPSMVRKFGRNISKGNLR
Sequence of KIF18A (P02550 whole entry partner): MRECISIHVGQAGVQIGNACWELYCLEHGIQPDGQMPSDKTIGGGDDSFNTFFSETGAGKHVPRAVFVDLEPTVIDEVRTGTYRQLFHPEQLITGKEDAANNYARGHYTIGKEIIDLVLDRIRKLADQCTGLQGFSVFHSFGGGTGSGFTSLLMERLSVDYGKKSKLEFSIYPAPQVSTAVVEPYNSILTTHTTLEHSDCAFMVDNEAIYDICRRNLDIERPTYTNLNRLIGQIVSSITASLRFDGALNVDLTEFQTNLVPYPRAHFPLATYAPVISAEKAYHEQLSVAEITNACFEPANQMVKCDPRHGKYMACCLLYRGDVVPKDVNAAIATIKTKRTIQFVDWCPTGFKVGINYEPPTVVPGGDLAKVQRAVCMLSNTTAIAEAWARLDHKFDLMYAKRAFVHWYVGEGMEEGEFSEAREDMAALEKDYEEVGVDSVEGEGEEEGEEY
Sequence of KIF18A (P02554 whole entry partner): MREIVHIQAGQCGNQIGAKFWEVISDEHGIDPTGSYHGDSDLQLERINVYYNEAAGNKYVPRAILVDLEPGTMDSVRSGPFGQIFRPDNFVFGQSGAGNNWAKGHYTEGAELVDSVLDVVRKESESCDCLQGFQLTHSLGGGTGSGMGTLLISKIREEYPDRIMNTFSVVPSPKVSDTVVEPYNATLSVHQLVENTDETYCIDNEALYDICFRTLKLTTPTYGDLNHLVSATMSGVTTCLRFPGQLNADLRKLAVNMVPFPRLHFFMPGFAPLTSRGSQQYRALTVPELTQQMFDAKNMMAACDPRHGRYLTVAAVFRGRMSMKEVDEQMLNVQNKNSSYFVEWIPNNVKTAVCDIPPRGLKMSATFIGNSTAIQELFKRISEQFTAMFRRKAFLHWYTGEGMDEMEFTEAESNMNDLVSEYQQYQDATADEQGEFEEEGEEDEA

Take `O=C(Nc1cccc2c1ccn2CC1CC1(F)F)c1ccc(NS(=O)(=O)CCO)cc1N1CCC2(CC1)CC2` (centres unmarked) [Example 286, N-(1-((2,2-difluorocyclopropyl)methyl)-1H-indol-4-yl)-4-((2-hydroxyethyl)sulfonamido)-2-(6-azaspiro[2.5]oct-6-yl)benzamide]: the IC50 (usually the concentration at which inhibition is half-maximal) at KIF18A was at most 0.05 µM; in the assay on OVCAR-3 cells (Homo sapiens, OVCAR-3, 240 h), 0.05 to 0.5 µM.
With `O=C(Nc1cccc2c1cnn2CC1CC1)c1ccc(NS(=O)(=O)CCO)cc1N1CCC2(CC1)CC2` [Example 287, N-(1-(cyclopropylmethyl)-1H-indazol-4-yl)-4-(2-hydroxyethylsulfonamido)-2-(6-azaspiro[2.5]octan-6-yl)benzamide], the concentration for half-maximal inhibition (IC50) against KIF18A was in the range of 0.05 to 0.5 µM; with OVCAR-3 cells (Homo sapiens, OVCAR-3, 240 h), 0.05 to 0.5 µM.
Consider `O=C(Nc1ccc(F)c2c1OCCN2CC1CC1)c1ccc(NS(=O)(=O)CCO)cc1N1CCC2(CC1)CC2` [Example 294, N-(4-(cyclopropylmethyl)-5-fluoro-3,4-dihydro-2H-benzo[b][1,4]oxazin-8-yl)-4-((2-hydroxyethyl)sulfonamido)-2-(6-azaspiro[2.5]oct-6-yl)benzamide], for which the IC50 against KIF18A was at most 0.05 µM; in the assay on OVCAR-3 cells (Homo sapiens, OVCAR-3, 240 h), 0.5 to 5 µM.
The corresponding values for `CC1Cn2c(cc3c(NC(=O)c4ccc(NS(=O)(=O)CCO)cc4N4CCC5(CC4)CC5)cccc32)C(C)O1` (centres unmarked) [Example 312, N-(1,3-dimethyl-3,4-dihydro-1H-[1,4]oxazino[4,3-a]indol-9-yl)-4-((2-hydroxyethyl)sulfonamido)-2-(6-azaspiro[2.5]oct-6-yl)benzamide] are 0.05 to 0.5 µM and at most 0.05 µM.
As for `O=C(Nc1cccc2c1cc1n2CC(F)(F)CC1)c1ccc(NS(=O)(=O)CCO)cc1N1CCC2(CC1)CC2` [Example 341, N-(7,7-difluoro-6,7,8,9-tetrahydropyridino[1,2-a]indol-1-yl)-4-((2-hydroxyethyl)sulfonamido)-2-(6-azaspiro[2.5]oct-6-yl)benzamide], the IC50 at KIF18A is 0.05 to 0.5 µM; in the assay on OVCAR-3 cells (Homo sapiens, OVCAR-3, 240 h) it was 0.05 to 0.5 µM.
For the compound `O=C(Nc1cccc2c1cc1n2CCCC1O)c1ccc(NS(=O)(=O)CCO)cc1N1CCC2(CC1)CC2` (centres unmarked) [Example 342, N-(9-hydroxy-6,7,8,9-tetrahydropyridino[1,2-a]indol-1-yl)-4-((2-hydroxyethyl)sulfonamido)-2-(6-azaspiro[2.5]octan-6-yl)benzamide], the half-inhibitory concentration (IC50) on KIF18A is at most 0.05 µM; in the assay on OVCAR-3 cells (Homo sapiens, OVCAR-3, 240 h), 0.05 to 0.5 µM.
For the compound `O=C(Nc1cccc2c1cc1n2CCOC1=O)c1ccc(NS(=O)(=O)CCO)cc1N1CCC2(CC1)CC2` [Example 346, 4-((2-hydroxyethyl)sulfonamido)-N-(1-oxo-3,4-dihydro-1H-[1,4]oxazino[4,3-a]indol-9-yl)-2-(6-azaspiro[2.5]oct-6-yl)benzamide], the IC50 is 0.05 to 0.5 µM on KIF18A and over 5 µM in the assay on OVCAR-3 cells (Homo sapiens, OVCAR-3, 240 h).
On to `O=C(Nc1ccc(NS(=O)(=O)CCO)cc1N1CCC2(CC1)CC2)c1cccc2c1cc1n2CCOC1` [Example 357], for which the IC50 at KIF18A was at most 0.05 µM; in the assay with OVCAR-3 cells, 0.05 to 0.5 µM.
`O=C(Nc1cc(F)cc2c1cc1n2CCOC1)c1ccc(NS(=O)(=O)CCO)cc1N1CCC2(CC1)CC2` [Example 366, N-(7-fluoro-3,4-dihydro-1H-[1,4]oxazino[4,3-a]indol-9-yl)-4-((2-hydroxyethyl)sulfonamido)-2-(6-azaspiro[2.5]oct-6-yl)benzamide]: the IC50 on KIF18A was at most 0.05 µM; in the assay with OVCAR-3 cells (Homo sapiens, OVCAR-3, 240 h) it was at most 0.05 µM.
Take `O=C(Nc1cc(F)cc2c1cc1n2CCOC1)c1ccc(NS(=O)(=O)CCO)cc1N1CCC(=C(F)F)CC1` [Example 367, 2-(4-(difluoromethylene)piperidin-1-yl)-N-(7-fluoro-3,4-dihydro-1H-[1,4]oxazino[4,3-a]indol-9-yl)-4-((2-hydroxyethyl)sulfonamido)benzamide]: the IC50 at KIF18A is at most 0.05 µM; in the assay with OVCAR-3 cells (Homo sapiens, OVCAR-3, 240 h), 0.05 to 0.5 µM.
Consider `O=C(Nc1cc(F)cc2c1nc1n2CCOC1)c1ccc(NS(=O)(=O)CCO)cc1N1CCC2(CC1)CC2` [Example 368, N-(7-fluoro-3,4-dihydro-1H-benzo[4,5]imidazo[2,1-c][1,4]oxazin-9-yl)-4-((2-hydroxyethyl)sulfonamido)-2-(6-azaspiro[2.5]oct-6-yl)benzamide], for which the concentration for half-maximal inhibition (IC50) is at most 0.05 µM on KIF18A and at most 0.05 µM in the assay on OVCAR-3 cells (Homo sapiens, OVCAR-3, 240 h).
In the case of `O=C(Nc1cc(F)cc2c1nc1n2CCOC1)c1ccc(NS(=O)(=O)CCO)cc1N1CCC(=C(F)F)CC1` [Example 369, 2-(4-(difluoromethylene)piperidin-1-yl)-N-(7-fluoro-3,4-dihydro-1H-benzo[4,5]imidazo[2,1-c][1,4]oxazin-9-yl)-4-((2-hydroxyethyl)sulfonamido)benzamide], the 50% inhibitory concentration (IC50) on KIF18A is at most 0.05 µM; in the assay on OVCAR-3 cells (Homo sapiens, OVCAR-3, 240 h) it was 0.05 to 0.5 µM.
For the compound `CCS(=O)(=O)Nc1ccc(C(=O)Nc2cccc3c2cc2n3CCCC2O)c(N2CCC3(CC2)CC3)c1` (centres unmarked) [Example 373, 4-(ethylsulfonamido)-N-(9-hydroxy-6,7,8,9-tetrahydropyridino[1,2-a]indol-1-yl)-2-(6-azaspiro[2.5]oct-6-yl)benzamide], the concentration for half-maximal inhibition (IC50) against KIF18A is at most 0.05 µM; with OVCAR-3 cells (Homo sapiens, OVCAR-3, 240 h), at most 0.05 µM.
As to `CCS(=O)(=O)Nc1ccc(C(=O)Nc2cccc3c2cc2n3CCC(F)(F)C2O)c(N2CCC(=C(F)F)CC2)c1` (centres unmarked) [Example 381, N-(8,8-difluoro-9-hydroxy-6,7,8,9-tetrahydropyridino[1,2-a]indol-1-yl)-2-(4-(difluoromethylene)piperidin-1-yl)-4-ethyl sulfonamidobenzamide], the IC50 at KIF18A and in the assay on OVCAR-3 cells was at most 0.05 µM in each case.
As for `N#Cc1ccc(NC(=O)c2ccc(NS(=O)(=O)CCO)cc2N2CCC3(CC2)CC3)c2cc3n(c12)CCC(F)(F)C3O` (centres unmarked) [Example 438, N-(4-cyano-8,8-difluoro-9-hydroxy-6,7,8,9-tetrahydropyridino[1,2-a]indol-1-yl)-4-((2-hydroxyethyl)sulfonamido)-2-(6-azaspiro[2.5]oct-6-yl)benzamide], the half-maximal inhibitory concentration (IC50) on KIF18A is 0.05 to 0.5 µM; with OVCAR-3 cells (Homo sapiens, OVCAR-3, 240 h), at most 0.05 µM.
Turning to `CC1Cn2c(nc3c(NC(=O)c4ccc(NS(=O)(=O)CCO)cc4N4CCC5(CC4)CC5)cccc32)C(C)O1` (centres unmarked) [Example 444, 2-(6-azaspiro[2.5]oct-6-yl)-N-(1,3-dimethyl-3,4-dihydro-1H-benzo[4,5]imidazo[2,1-c][1,4]oxazin-9-yl)-4-{[(2-hydroxyethyl)sulfonamide]}benzamide], the half-inhibitory concentration (IC50) against KIF18A and in the assay on OVCAR-3 cells was at most 0.05 µM in each case.
Regarding `CC1Cn2c(nc3c(NC(=O)c4ccc(NS(=O)(=O)CCO)cc4N4CCC5(CC4)CC5)ccc(F)c32)C(C)O1` (centres unmarked) [Example 445, 2-(6-azaspiro[2.5]oct-6-yl)-N-(6-fluoro-1,3-dimethyl-3,4-dihydro-1H-benzo[4,5]imidazo[2,1-c][1,4]oxazin-9-yl)-4-{[(2-hydroxyethyl)sulfonamide]}benzamide], the IC50 on KIF18A and in the assay on OVCAR-3 cells was at most 0.05 µM in each case.
Consider `COc1ccc(NC(=O)c2ccc(NS(=O)(=O)CCO)cc2N2CCC3(CC2)CC3)c2cc3n(c12)CC(C)OC3C` (centres unmarked) [Example 449], for which the results for the IC50 against KIF18A and in the assay on OVCAR-3 cells were 0.05 to 0.5 µM and at most 0.05 µM, respectively.
With `CC1(C)Cn2c(cc3c(NC(=O)c4ccc(NS(=O)(=O)CCO)nc4N4CCC5(CC4)CC5)cccc32)CO1` [Example 453, N-(3,3-dimethyl-3,4-dihydro-1H-[1,4]oxazino[4,3-a]indol-9-yl)-6-((2-hydroxyethyl)sulfonamido)-2-(6-azaspiro[2.5]octan-6-yl)nicotinamide], the IC50 against KIF18A lay within 0.05 to 0.5 µM; in the assay with OVCAR-3 cells (Homo sapiens, OVCAR-3, 240 h), 0.5 to 5 µM.
